# Source: patent US20230312576A1, “4-(7H-PYRROLO[2,3-D]PYRIMIDIN-4-YL)-3,6-DIHYDROPYRIDINE-1-(2H)-CARBOXAMIDE DERIVATIVES AS LIMK AND/OR ROCK KINASES INHIBITORS FOR USE IN THE TREATMENT OF CANCER” (CENTRE NATIONAL DE LA RECHERCHE SCIENTIFIQUE, priority 2020, published 2023)
# pKi: −log10 of the molar value. Where two headings read alike, the source gives them in different places.
# Legend:
# [1] = target: ROCK1 (Homo sapiens (Human), UniProt Q13464); assay: Z'Lyte assay, ROCK1 inhibition at a single concentration; type: biochemical
# Chain of ROCK1 (Q13464 whole entry): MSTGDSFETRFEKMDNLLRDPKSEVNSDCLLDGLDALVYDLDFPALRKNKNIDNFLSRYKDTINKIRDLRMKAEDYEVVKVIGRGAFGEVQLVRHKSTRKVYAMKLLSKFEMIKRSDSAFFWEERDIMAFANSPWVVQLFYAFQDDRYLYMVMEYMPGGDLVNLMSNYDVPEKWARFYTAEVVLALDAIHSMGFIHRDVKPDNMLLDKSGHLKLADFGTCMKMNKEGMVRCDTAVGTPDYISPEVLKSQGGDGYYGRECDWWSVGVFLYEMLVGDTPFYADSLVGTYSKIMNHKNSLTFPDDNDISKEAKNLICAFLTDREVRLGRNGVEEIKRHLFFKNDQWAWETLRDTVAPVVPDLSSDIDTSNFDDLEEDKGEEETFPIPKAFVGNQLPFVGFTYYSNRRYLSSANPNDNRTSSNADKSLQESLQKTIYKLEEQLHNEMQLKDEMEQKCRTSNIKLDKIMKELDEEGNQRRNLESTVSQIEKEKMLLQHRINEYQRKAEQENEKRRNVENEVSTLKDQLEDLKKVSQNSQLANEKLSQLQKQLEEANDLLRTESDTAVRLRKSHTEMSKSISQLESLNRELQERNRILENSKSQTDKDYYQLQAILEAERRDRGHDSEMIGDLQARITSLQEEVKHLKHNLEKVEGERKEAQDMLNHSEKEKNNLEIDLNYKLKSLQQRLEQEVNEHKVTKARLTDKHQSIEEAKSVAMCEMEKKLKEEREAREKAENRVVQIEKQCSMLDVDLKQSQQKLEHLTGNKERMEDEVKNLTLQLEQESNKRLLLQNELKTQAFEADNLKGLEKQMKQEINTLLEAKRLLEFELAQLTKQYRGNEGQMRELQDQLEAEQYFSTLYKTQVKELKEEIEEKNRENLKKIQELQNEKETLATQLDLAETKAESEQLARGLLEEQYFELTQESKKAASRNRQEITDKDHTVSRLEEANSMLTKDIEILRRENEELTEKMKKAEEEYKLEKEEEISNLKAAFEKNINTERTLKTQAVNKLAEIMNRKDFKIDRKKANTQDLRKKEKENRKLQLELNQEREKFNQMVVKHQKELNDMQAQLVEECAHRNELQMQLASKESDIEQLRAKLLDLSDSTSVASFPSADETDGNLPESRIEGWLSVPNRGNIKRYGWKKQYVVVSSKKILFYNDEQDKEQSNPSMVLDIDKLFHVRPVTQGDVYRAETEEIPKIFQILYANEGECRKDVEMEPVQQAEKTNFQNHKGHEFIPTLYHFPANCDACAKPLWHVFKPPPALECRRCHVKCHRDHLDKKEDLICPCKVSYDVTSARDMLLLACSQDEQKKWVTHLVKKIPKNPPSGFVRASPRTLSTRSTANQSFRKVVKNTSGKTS
# [2] = target: ROCK2 (Homo sapiens (Human), UniProt O75116); assay: Z'Lyte assay, ROCK2 inhibition at a single concentration; type: biochemical
# Chain of ROCK2 (O75116 whole entry): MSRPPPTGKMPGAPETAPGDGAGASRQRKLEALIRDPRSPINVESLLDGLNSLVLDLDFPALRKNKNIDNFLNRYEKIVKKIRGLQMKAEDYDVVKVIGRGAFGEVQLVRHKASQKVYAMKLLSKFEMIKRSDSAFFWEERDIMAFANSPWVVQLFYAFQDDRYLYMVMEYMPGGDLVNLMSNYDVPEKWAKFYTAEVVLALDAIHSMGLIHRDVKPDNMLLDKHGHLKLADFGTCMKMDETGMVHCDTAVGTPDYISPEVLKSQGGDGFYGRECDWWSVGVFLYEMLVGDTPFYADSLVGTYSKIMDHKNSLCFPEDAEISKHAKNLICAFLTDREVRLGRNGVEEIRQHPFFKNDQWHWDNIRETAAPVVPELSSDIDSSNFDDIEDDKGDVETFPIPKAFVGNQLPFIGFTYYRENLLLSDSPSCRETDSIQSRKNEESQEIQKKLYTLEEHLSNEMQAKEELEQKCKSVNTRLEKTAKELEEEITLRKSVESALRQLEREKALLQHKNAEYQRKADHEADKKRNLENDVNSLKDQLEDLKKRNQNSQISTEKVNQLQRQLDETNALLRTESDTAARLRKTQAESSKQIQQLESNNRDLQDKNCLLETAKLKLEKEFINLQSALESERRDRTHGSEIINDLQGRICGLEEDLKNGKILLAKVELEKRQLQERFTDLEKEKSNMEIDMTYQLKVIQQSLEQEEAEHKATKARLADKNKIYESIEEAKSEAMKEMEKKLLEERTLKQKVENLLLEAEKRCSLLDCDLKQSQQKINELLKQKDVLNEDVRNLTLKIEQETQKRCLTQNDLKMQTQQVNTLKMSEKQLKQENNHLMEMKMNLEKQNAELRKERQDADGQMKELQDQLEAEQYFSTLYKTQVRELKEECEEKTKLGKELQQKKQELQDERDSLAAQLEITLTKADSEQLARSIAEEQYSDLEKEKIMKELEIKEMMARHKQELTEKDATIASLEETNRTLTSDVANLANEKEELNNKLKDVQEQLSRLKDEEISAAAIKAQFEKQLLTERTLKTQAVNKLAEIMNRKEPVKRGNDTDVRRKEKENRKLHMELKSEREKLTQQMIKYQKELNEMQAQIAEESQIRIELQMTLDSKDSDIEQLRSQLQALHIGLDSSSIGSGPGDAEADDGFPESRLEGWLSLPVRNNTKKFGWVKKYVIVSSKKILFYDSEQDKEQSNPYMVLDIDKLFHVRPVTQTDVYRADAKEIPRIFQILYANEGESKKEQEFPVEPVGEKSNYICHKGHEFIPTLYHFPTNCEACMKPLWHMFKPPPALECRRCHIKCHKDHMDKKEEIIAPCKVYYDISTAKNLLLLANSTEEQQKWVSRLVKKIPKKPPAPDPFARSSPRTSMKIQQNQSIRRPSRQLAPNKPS
# [3] = test system: cofilin phosphorylation, HeLa cells; assay: Cofilin phosphorylation by Western Blot (anti-phospho-Ser3-cofilin) in HeLa cells; type: cell-based; conditions: for inhibition at 25 µM: Homo sapiens
# [4] = target: LIMK1 (Homo sapiens (Human), UniProt P53667); assay: Lanthascreen Eu binding assay (TR-FRET), inhibition of LIMK1
# Chain of LIMK1 (P53667 whole entry): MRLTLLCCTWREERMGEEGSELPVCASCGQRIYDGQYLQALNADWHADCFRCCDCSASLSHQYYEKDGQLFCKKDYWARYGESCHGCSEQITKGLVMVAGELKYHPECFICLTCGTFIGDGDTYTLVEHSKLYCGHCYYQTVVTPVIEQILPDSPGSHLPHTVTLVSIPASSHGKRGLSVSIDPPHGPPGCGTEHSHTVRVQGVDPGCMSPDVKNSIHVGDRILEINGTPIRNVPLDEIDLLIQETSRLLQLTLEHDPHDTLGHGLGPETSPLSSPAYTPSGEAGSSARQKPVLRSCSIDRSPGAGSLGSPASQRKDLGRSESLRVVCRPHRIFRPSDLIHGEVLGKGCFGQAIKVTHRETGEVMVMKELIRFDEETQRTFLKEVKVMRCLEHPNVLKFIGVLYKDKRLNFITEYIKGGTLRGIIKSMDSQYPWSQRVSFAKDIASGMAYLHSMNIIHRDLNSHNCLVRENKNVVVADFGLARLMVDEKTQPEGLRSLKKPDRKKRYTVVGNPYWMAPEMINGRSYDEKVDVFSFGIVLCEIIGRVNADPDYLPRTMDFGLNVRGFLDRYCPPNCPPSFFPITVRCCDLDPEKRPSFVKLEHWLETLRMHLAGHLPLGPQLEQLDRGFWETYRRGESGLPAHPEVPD
# [5] = target: LIMK2 (Homo sapiens (Human), UniProt P53671); assay: Lanthascreen Eu binding assay (TR-FRET), inhibition of LIMK2
# Chain of LIMK2 (P53671 whole entry): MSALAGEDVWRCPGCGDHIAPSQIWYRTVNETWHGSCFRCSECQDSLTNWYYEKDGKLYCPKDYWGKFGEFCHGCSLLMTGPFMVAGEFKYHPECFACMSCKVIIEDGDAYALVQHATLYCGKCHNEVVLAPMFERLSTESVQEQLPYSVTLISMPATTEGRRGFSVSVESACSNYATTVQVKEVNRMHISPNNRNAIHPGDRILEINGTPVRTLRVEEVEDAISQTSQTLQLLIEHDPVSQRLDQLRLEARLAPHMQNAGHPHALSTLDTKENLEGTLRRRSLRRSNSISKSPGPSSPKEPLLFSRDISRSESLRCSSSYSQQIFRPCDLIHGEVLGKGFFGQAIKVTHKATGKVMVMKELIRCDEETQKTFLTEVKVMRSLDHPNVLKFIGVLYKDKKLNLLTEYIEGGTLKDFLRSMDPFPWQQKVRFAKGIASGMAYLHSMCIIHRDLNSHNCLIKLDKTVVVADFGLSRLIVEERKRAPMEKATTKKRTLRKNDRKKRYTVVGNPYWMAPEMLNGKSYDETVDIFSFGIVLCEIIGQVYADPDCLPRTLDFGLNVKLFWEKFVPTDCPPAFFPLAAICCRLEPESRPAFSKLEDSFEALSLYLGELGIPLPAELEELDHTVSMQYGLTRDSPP
# [6] = read-out: % inhibition (ROCK1) 1 uM, 1 uM
# [7] = read-out: % inhibition (ROCK2) 1 uM, 1 uM
# [8] = HeLa, 2 h, read-out: % inhibition Cofilin phosphorylation HeLa cells treated 2 h with 25 uM of inhibitor
# [9] = HeLa, 2 h, read-out: % inhibition of cofilin phosphorylation in HeLa cells (treatment 2 h, at 25 μM)
# [10] = HeLa, 2 h, read-out: % inhibition of cofilin phosphorylation in HeLa cells (treatment 2 h, at 25 μM), Table 2, normalized to the control condition DMSO
# [11] = read-out: % inhibition Cofilin phosphorylation HeLa cells treated 2 h with 25 uM of inhibitor, HeLa cells, 2 h, 25 uM
# [12] = read-out: % inhibition (ROCK1) 1 uM
# [13] = read-out: % inhibition (ROCK2) 1 uM
"inhibition at 1 µM [1, 6] [%]","inhibition at 1 µM [2, 7] [%]",pKi ([4]; Lanthascreen Eu binding assay),pKi ([5]; Lanthascreen Eu binding assay),SMILES,"inhibition at 25 µM [3, 11] [%]","inhibition at 1 µM [1, 12] [%]","inhibition at 1 µM [2, 13] [%]",further results
,,,,"Cc1c[nH]c2ncnc(C3=CC(C)N(C(=O)Nc4cccc(Br)c4)CC3)c12 (centres unmarked) [Compound 49a-49b, N-(3-bromophenyl)-6-methyl-4-(5-methyl-7H-pyrrolo[2,3-d]pyrimidin-4-yl)-3,6-dihydropyridine-1(2H)-carboxamide (49a) and N-(3-bromophenyl)-2-methyl-4-(5-methyl-7H-pyrrolo[2,3-d]pyrimidin-4-yl)-3,6-dihydropyridine-1(2H)-carboxamide (49b)]",,,,"% inhibition (ROCK1) 1 uM [1]: 96%; % inhibition (ROCK2) 1 uM [2]: 98%; % inhibition Cofilin phosphorylation HeLa cells treated 2 h with 25 uM of inhibitor [3]: 88.1%; % inhibition of cofilin phosphorylation in HeLa cells (treatment 2 h, at 25 μM) [3]: 88.1%"
6,8,7.37,7.96,"O=C(Nc1cccc(Oc2ccccc2)c1)N1CC=C(c2ncnc3[nH]cc(C4CC4)c23)CC1 [Compound 79, 4-(5-Cyclopropyl-7H-pyrrolo[2,3-d]pyrimidin-4-yl)-N-(3-phenoxyphenyl)-3,6-dihydropyridine-1(2H)-carboxamide]",83.1,,,"inhibition at 25 µM [3, 10]: 83.1%"
16,11,7.32,7.69,"COc1cccc(Oc2cccc(NC(=O)N3CC=C(c4ncnc5[nH]cc(C6CC6)c45)CC3)c2)c1 [Compound 82, 4-(5-Cyclopropyl-7H-pyrrolo[2,3-d]pyrimidin-4-yl)-N-[3-(3-methoxyphenoxy)phenyl]-3,6-dihydropyridine-1(2H)-carboxamide]",82.7,,,"inhibition at 25 µM [3, 10]: 82.7%"
,,,,"O=C(Nc1cccc(Br)c1)N1CC=C(c2ncnc3[nH]c4c(c23)CCC4)CC1 [Compound 112, N-(3-Bromophenyl)-4-(5,6,7,8-tetrahydrocyclopenta[4,5]pyrrolo[2,3-d]pyrimidin-4-yl)-3,6-dihydropyridine-1(2H)-carboxamide]",,8,13,"pKi [4]: 8.15; pKi [5]: 7.62; inhibition at 25 µM [3, 8]: 84.5%; inhibition at 25 µM [3, 9]: 84.5%"
7,4,8.15,7.59,"O=C(Nc1cccc(F)c1)N1CC=C(c2ncnc3[nH]c4c(c23)CCCC4)CC1 [Compound 113, N-(3-Fluorophenyl)-4-(6,7,8,9-tetrahydro-5H-pyrimido[4,5-b]indol-4-yl)-3,6-dihydropyridine-1(2H)-carboxamide]",87,,,
,,,,"O=C(Nc1cccc(Br)c1)N1CC=C(c2ncnc3[nH]c4c(c23)CCCC4)CC1 [Compound 115, N-(3-Bromophenyl)-4-(6,7,8,9-tetrahydro-5H-pyrimido[4,5-b]indol-4-yl)-3,6-dihydropyridine-1(2H)-carboxamide]",,7,11,"pKi [4]: 8.27; pKi [5]: 7.79; inhibition at 25 µM [3, 8]: 81.8%; inhibition at 25 µM [3, 9]: 81.8%"
-8,-7,7.78,7.19,"O=C(Nc1cccc(F)c1)N1CC=C(c2ncnc3[nH]c4c(c23)CCCCC4)CC1 [Compound 116, N-(3-Fluorophenyl)-4-(5,6,7,8,9,10-hexahydrocyclohepta[4,5]pyrrolo[2,3-d]pyrimidin-4-yl)-3,6-dihydropyridine-1(2H)-carboxamide]",73.1,,,"inhibition at 25 µM [3, 10]: 73.1%"
,,,,"O=C(Nc1cccc(Br)c1)N1CC=C(c2ncnc3[nH]c4c(c23)CCCCC4)CC1 [Compound 118, N-(3-Bromophenyl)-4-(5,6,7,8,9,10-hexahydrocyclohepta[4,5]pyrrolo[2,3-d]pyrimidin-4-yl)-3,6-dihydropyridine-1(2H)-carboxamide]",,10,-4,"pKi [4]: 7.83; pKi [5]: 7.39; inhibition at 25 µM [3, 8]: 84.2%; inhibition at 25 µM [3, 9]: 84.2%"
3,18,8.21,7.60,"COc1cccc(NC(=O)N2CC=C(c3ncnc4[nH]c5c(c34)CCC5)CC2)c1 [Compound 121, N-(3-Methoxyphenyl)-4-(5,6,7,8-tetrahydrocyclopenta[4,5]pyrrolo[2,3-d]pyrimidin-4-yl)-3,6-dihydropyridine-1(2H)-carboxamide]",64.5,,,
3,20,8.09,7.41,"N#Cc1cccc(NC(=O)N2CC=C(c3ncnc4[nH]c5c(c34)CCC5)CC2)c1 [Compound 127, N-(3-Cyanophenyl)-4-(7,9,11-triazatricyclo[6.4.0.02,6]dodeca-1(8),2(6),9,11-tetraen-12-yl)-3,6-dihydropyridine-1(2H)-carboxamide]",68.5,,,
,,7.57,7.17,"O=C(Nc1cccc(C(F)(F)F)c1)N1CC=C(c2ncnc3[nH]c4c(c23)CCC4)CC1 [Compound 128, 4-(7,9,11-Triazatricyclo[6.4.0.02,6]dodeca-1(8),2(6),9,11-tetraen-12-yl)-N[3(trifluoromethyl)phenyl]-3,6-dihydropyridine-1(2H)-carboxamide]",,,,"% inhibition (ROCK2) 1 uM ([2]; 1 uM): −14%; % inhibition Cofilin phosphorylation HeLa cells treated 2 h with 25 uM of inhibitor ([3]; HeLa cells, 2 h, 25 uM): 83.9%; % inhibition of cofilin phosphorylation in HeLa cells (treatment 2 h, at 25 μM) ([3]; Table 2, normalized to the control condition DMSO): 83.9%"
5,3,6.99,6.33,"Cc1c[nH]c2ncnc(C3=CCN(C(=O)Nc4cccc(Oc5cccc(OCc6ccccc6)c5)c4)CC3)c12 [Compound 211, N-(3-(3-(benzyloxy)phenoxy)phenyl)-4-(5-methyl-7H-pyrrolo[2,3-d]pyrimidin-4-yl)-3,6-dihydropyridine-1(2H)-carboxamide]",,,,
55,27,7.89,7.79,"Cc1c[nH]c2ncnc(C3=CCN(C(=O)Nc4cccc(Oc5cccc(O)c5)c4)CC3)c12 [Compound 213, N-(3-(3-hydroxyphenoxy)phenyl)-4-(5-methyl-7H-pyrrolo[2,3-d]pyrimidin-4-yl)-3,6-dihydropyridine-1(2H)-carboxamide]",,,,
60,37,8.31,8.26,"CC(=O)Nc1cccc(Oc2cccc(NC(=O)N3CC=C(c4ncnc5[nH]cc(C)c45)CC3)c2)c1 [Compound 219, N-(3-(3-acetamidophenoxy)phenyl)-4-(5-methyl-7H-pyrrolo[2,3-d]pyrimidin-4-yl)-3,6-dihydropyridine-1(2H)-carboxamide]",,,,
66,48,8.34,8.53,"CNC(=O)c1cccc(Oc2cccc(NC(=O)N3CC=C(c4ncnc5[nH]cc(C)c45)CC3)c2)c1 [Compound 222, 4-(5-methyl-7H-pyrrolo[2,3-d]pyrimidin-4-yl)-N-(3-(3-(methylcarbamoyl)phenoxy)phenyl)-3,6-dihydropyridine-1(2H)-carboxamide]",,,,

SMILES,"inhibition at 1 µM [1, 6] [%]","inhibition at 1 µM [2, 7] [%]",pKi ([4]; Lanthascreen Eu binding assay),pKi ([5]; Lanthascreen Eu binding assay),"inhibition at 25 µM [3, 11] [%]","inhibition at 1 µM [1, 12] [%]","inhibition at 1 µM [2, 13] [%]",further results
"Cc1c[nH]c2ncnc(C3=CCN(C(=O)Nc4ccc5ccccc5c4)CC3)c12 [Compound 13, 4-(5-Methyl-7H-pyrrolo[2,3-d]pyrimidin-4-yl)-N-(naphthalen-2-yl)-3,6-dihydropyridine-1(2H)-carboxamide]",73,56,,,,,,"inhibition at 25 µM [3, 8]: 84.2%; inhibition at 25 µM [3, 9]: 84.2%"
"O=C(Nc1cccc(-n2cccc2)c1)N1CC=C(c2ncnc3[nH]cc(C4CC4)c23)CC1 [Compound 81, 4-(5-Cyclopropyl-7H-pyrrolo[2,3-d]pyrimidin-4-yl)-N-(3-pyrrol-1-ylphenyl)-3,6-dihydropyridine-1(2H)-carboxamide]",36,35,,,,,,"inhibition at 25 µM [3, 8]: 90%; inhibition at 25 µM [3, 9]: 90%"
"O=C(Nc1cccc(Cl)c1)N1CC=C(c2ncnc3[nH]c4c(c23)CCC4)CC1 [Compound 111, N-(3-Chlorophenyl)-4-(5,6,7,8-tetrahydrocyclopenta[4,5]pyrrolo[2,3-d]pyrimidin-4-yl)-3,6-dihydropyridine-1(2H)-carboxamide]",,,8.24,7.59,82.3,10,14,"inhibition at 25 µM [3, 10]: 82.3%"
"O=C(Nc1cccc(Cl)c1)N1CC=C(c2ncnc3[nH]c4c(c23)CCCCC4)CC1 [Compound 117, N-(3-Chlorophenyl)-4-(5,6,7,8,9,10-hexahydrocyclohepta[4,5]pyrrolo[2,3-d]pyrimidin-4-yl)-3,6-dihydropyridine-1(2H)-carboxamide]",,,7.66,7.21,69.2,4,7,
"O=C(Nc1ccccc1)N1CC=C(c2ncnc3[nH]c4c(c23)CCC4)CC1 [Compound 119, N-Phenyl-4-(5,6,7,8-tetrahydrocyclopenta[4,5]pyrrolo[2,3-d]pyrimidin-4-yl)-3,6-dihydropyridine-1(2H)-carboxamide]",,,8.10,7.52,64.1,0,11,
"Cc1c[nH]c2ncnc(C3=CCN(C(=O)Nc4cccc(Oc5cccc(OC(=O)N(C)C)c5)c4)CC3)c12 [Compound 216, 3-(3-(4-(5-methyl-7H-pyrrolo[2,3-d]pyrimidin-4-yl)-1,2,3,6-tetrahydropyridine-1-carboxamido)phenoxy)phenyl dimethylcarbamate]",,,8.31,7.84,,71,56,
